Measured values taken from publication PMC8743659, “C1632 suppresses the migration and proliferation of non‐small‐cell lung cancer cells involving LIN28 and FGFR1 pathway” (Journal of Cellular and Molecular Medicine, 2021).
Entries after “also recorded” stand apart in the source; their conditions may differ. Like-named read-outs stand apart in the source and are kept apart here.

How the values were obtained:
[1] = Pharmacokinetic study, plasma by UHPLC-MS/MS; assay type: in vivo, Sprague-Dawley (SD) rats; details: for MRT last: read-out: MRT(0-t); for half-life: read-out: t1/2z (converted)
Procedure: Agilent 1290 UHPLC system and 6420 series Triple‐Quadrupole Tandem Mass Spectrometer (Agilent Corporation) maintained at 35°C with a ZORBAX Eclipse Plus C18 column (1.8 μm, 2.1 × 50 mm). The mobile phase was a gradient elution program consisting of solvent A with solvent B at a flow rate of 0.4 ml/min. Mobile phase A was 0.1% formic acid in water (v/v), and mobile phase B was acetonitrile. The optimal gradient elution program was as follows: 0–0.5 min, linear from 80% to 5% A; 0.5–1.5 min, 5% A; 1.5–1.6 min, linear from 5% to 80% A. The post‐time was 1.3 min for equilibration of the column and the total runtime was 1.8 min. The mass spectrometer was acquired in an ESI‐positive mode with multiple reaction monitoring (MRM). Instrument control and data acquisition were performed on the MassHunter Agilent Software (version B.07.00).
The desolation gas (nitrogen) flow was set to 10 L/h: the capillary voltage: 4000 V; nebulizing gas and drying gas (both nitrogen): 45 psi and 350°C, respectively. The MRM mode with m/z 282.2→76.9 for C1632 and m/z 282.1→194.0 for IS was used for quantitative analysis.
Male SD rats were starved for 12 h before the experiment. But, tap water was available ad libitum. C1632 was administered orally or intravenously at the dose of 20 mg/kg (p.o.), 4 mg/kg (i.v.), respectively (n = 6). Blood samples were collected into heparinized polythene tubes 0.083, 0.25, 0.5, 1, 2, 4, 6, 9, 12, 24 h after dosing. As followed, the samples were centrifuged at 14,954 g for 10 min. Add acetonitrile (400 µl) and IS (20 µl) into collected plasma samples (100 µl). Thereafter, the samples were vortexed for 2 min, followed by centrifugation at 14,954 g for 10 min. Remove the supernatants to 1.5 ml tube and the sample is ready for detection by established UHPLC‐MS/MS assay. The injection volume is 6 µl. The pharmacokinetic parameters were determined using DAS software (Version 3.0).

FGFR1 = assay: Western blot of FGFR1 signalling in NSCLC cells; assay type: cell-based, human; details: A549 and A549R cells, C1632 5 days, dose-dependent
Procedure: The total cell protein was extracted and denaturized at 95°C for 10 min. Samples were separated in SDS‐PAGE gel, then transferred to a PVDF membrane. […] Blots were probed with relevant primary antibodies against FGFR1 (CST), p‐FGFR1 (CST), MAPK (CST), p‐MAPK (CST), FAK (CST), p‐FAK (CST), MMP‐9 (CST), LIN28B (CST), GAPDH (CST), and β‐actin (proteintech) overnight at 4°C, respectively. Then the lanes were detected with HRP‐conjugated secondary antibodies and visualized using WESTAR SUPERNOVA kit ([…]).

A549 cells [2] = assay: Scratch-wound healing assay; assay type: cell-based, human; details: A549, 60 mg/L
Procedure: (§1) The cells scratch‐wound assay was performed as previous reported.[38] The cells were seeded in a 6‐well plate and then cultured in DMEM medium containing indicated concentration of C1632 or 0.01% DMSO for 5 days. A denuded area was created across the diameter of dish by a yellow tip as the cell density up to 95%. Then cells were maintained in a serum‐free medium throughout the test. Phase‐contrast images were taken at the indicate time by Nikon Ti microscope and analysed with Axiovision Rel.4.8 software.

A549R cells [3] = assay: Scratch-wound healing assay; assay type: cell-based, human; details: 60 mg/L, after 72 h, control 97%
Procedure: as §1

A549 cells [4] = assay: Colony formation assay; assay type: cell-based, human; details: A549, 15, 30 and 60 mg/L, dose-dependent
Procedure: (§2) First, cells were treated with indicated concentrations of C1632 or 0.01% DMSO for 5 days. Then these cells were separated into single cells that were directly used for cloning. During the process of cloning, C1632‐treated A549 or A549R cells were still maintained in DMEM plus 10% FBS medium containing the indicated concentration of C1632 (15, 30, and 60 mg/L), while the control group was cultured with 0.01% DMSO. Both culture media were changed for every 2 days until 10 days. The number of forming colonies in C1632 or 0.01% DMSO‐treated groups was counted and the images were taken.

A549R cells [5] = assay: Colony formation assay; assay type: cell-based, human; details: A549R, 15, 30 and 60 mg/L, dose-dependent; stronger than in A549
Procedure: as §2

A549 cells [6] = assay: Annexin V/PI apoptosis assay; assay type: cell-based, human; details: A549, 15, 30 or 60 mg/L, 5 days
Procedure: (§3) Cells were seeded in 6 cm^2 dish with a density of 3.0 × 10^5 cells per dish and treated with C1632 with final concentration of 15, 30, and 60 mg/L or 0.01% DMSO for 5 days. Then the assay was performed following the protocol provided by the Annexin V/PI Apoptosis Kit (Sigma) and was assessed on a flow cytometer (BD FACSCalibur, BD Biosciences).

A549R cells [7] = assay: Annexin V/PI apoptosis assay; assay type: cell-based, human; details: A549R, 15, 30 or 60 mg/L, 5 days
Procedure: as §3

A549 cells [8] = assay: Cell cycle distribution analysis (flow cytometry); assay type: cell-based, human; details: A549, 15, 30 and 60 mg/L, 5 days, dose-dependent
Procedure: (§4) Cells were cultured in the absence or presence of 15, 30, and 60 mg/L of C1632 or 0.01% DMSO for 5 days, trypsinized, washed, and stained with propidium iodide before cell cycle distribution was assessed on a flow cytometer (BD FACSCalibur, BD Biosciences).

A549R cells [9] = assay: Cell cycle distribution analysis (flow cytometry); assay type: cell-based, human; details: A549R, 15, 30 and 60 mg/L, 5 days, dose-dependent
Procedure: as §4

[10] = male, Sprague-Dawley, iv, rat plasma, i.v. 4 mg/kg
[11] = male, Sprague-Dawley, po, rat plasma, p.o. 20 mg/kg

**Q.** For `CC(=O)N(C)c1cccc(-c2ccc3nnc(C)n3n2)c1` [C1632], which AUC(0-t) [1, 10] is on record?
**A.** The AUC(0-t) was 4090 ± 1630 ng·h/mL.

**Q.** And the Cmax [1, 10]?
**A.** Its Cmax is 2070 ± 338 ng/mL.

**Q.** And the Tmax [1, 10]?
**A.** Its Tmax is 0.53 ± 0.74 h.

**Q.** And the MRT last [1, 10]?
**A.** Its MRT last is 1.57 ± 0.74 h.

**Q.** And the half-life [1, 10]?
**A.** The half-life was 1.14 ± 0.52 h.

**Q.** What about the AUC(0-t) [1, 11] of the same molecule?
**A.** Its AUC(0-t) is 9100 ± 3830 ng·h/mL.

**Q.** What about the Cmax [1, 11] of the same molecule?
**A.** The Cmax was 4240 ± 2680 ng/mL.

**Q.** What about the Tmax [1, 11] of the same molecule?
**A.** Its Tmax is 1.04 ± 0.78 h.

**Q.** What about the CL/F ([1]; male, Sprague-Dawley, po, rat plasma, p.o. 20 mg/kg, read-out: CLz/F (converted)) of the same molecule?
**A.** The CL/F was 46.2 mL/min/kg.

**Q.** What about the MRT last [1, 11] of the same molecule?
**A.** The MRT last was 1.88 ± 0.42 h.

**Q.** And the Vd/F ([1]; male, Sprague-Dawley, po, rat plasma, p.o. 20 mg/kg, read-out: Vz/F)?
**A.** The Vd/F was 4.54 ± 4.68 L/kg.

**Q.** And the half-life [1, 11]?
**A.** Its half-life is 1.05 ± 0.6 h.

**Q.** And the bioavailability ([1]; male, Sprague-Dawley, rat, plasma, oral, 20 mg/kg, rats, p.o. 20 mg/kg vs i.v. 4 mg/kg, read-out: F (bioavailability))?
**A.** Its bioavailability is 44.5%.

**Q.** And the “time of second peak of the plasma concentration-time curve” value ([1]; oral administration group, 20 mg/kg)?
**A.** Its value is 1 h.

**Q.** What about the CLz/F ([1]; rat plasma, i.v. 4 mg/kg) of the same molecule?
**A.** Its CLz/F is 18.8 ± 8.5 mL/min/kg.

**Q.** And the Vz/F ([1]; rat plasma, i.v. 4 mg/kg)?
**A.** The Vz/F was 2.05 ± 1.66 L/kg.

**Q.** And the “expression of FGFR1 and FGFR1 phosphorylation” value (FGFR1)?
**A.** Its value is “inhibited”.

**Q.** And the “phosphorylation of the downstream kinase MAPK” value (FGFR1)?
**A.** The value was “inhibited”.

**Q.** What about the migration rate (A549 cells [2]) of the same molecule?
**A.** Its migration rate is “significant decrease”.

**Q.** And the “scratch covered by migrated cells” value (A549R cells [3])?
**A.** Its value is 60%.

**Q.** And the “formation of colony units” value (A549 cells [4])?
**A.** The value was “inhibited”.

**Q.** And the “formation of colony units” value (A549R cells [5])?
**A.** Its value is “inhibited”.

**Q.** What about the apoptosis (A549 cells [6]) of the same molecule?
**A.** The apoptosis was “induces apoptosis”.

**Q.** What about the apoptosis (A549R cells [7]) of the same molecule?
**A.** Its apoptosis is “limited effects; also recorded: did not significantly increase”.

**Q.** And the cell cycle distribution (A549 cells [8])?
**A.** Its cell cycle distribution is “arrested A549 and A549R cells at the G0/G1 phase”.

**Q.** And the cell cycle distribution (A549R cells [9])?
**A.** The cell cycle distribution was “arrested A549 and A549R cells at the G0/G1 phase”.
